Measured values taken from ChEMBL document CHEMBL1201862, “PubChem BioAssay data set” (2004).
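Interpolation was linear, between the two tested concentrations surrounding the appropriate level; five concentrations were tested over 48 hours in 96-well plates. Abbreviation: GI50, concentration required for 50% inhibition of growth.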 Activity calls are given as the source filed them. No stated cut-off is given here; in the data, active = GI50 up to about 1.1 µM and inactive = higher.

Assays:
Test in all cases: growth of human tumour cells (NCI), 48 h
SR = test system: SR
SNB-75 = test system: SNB-75
RPMI-8226 = test system: RPMI-8226
OVCAR-4 = test system: OVCAR-4
ACHN = test system: ACHN
U-251 = test system: U-251
NCI-H460 = test system: NCI-H460
SK-OV-3 = test system: SK-OV-3
HCT-116 = test system: HCT-116
COLO 205 = test system: COLO 205
MOLT-4 = test system: MOLT-4
LOX IMVI = test system: LOX IMVI
A549 = test system: A549
EKVX = test system: EKVX
OVCAR-5 = test system: OVCAR-5
T47D = test system: T47D
SW-620 = test system: SW-620
OVCAR-8 = test system: OVCAR-8
RXF 393 = test system: RXF 393
HOP-92 = test system: HOP-92
SK-MEL-28 = test system: SK-MEL-28
786-0 = test system: 786-0
M14 = test system: M14
SK-MEL-2 = test system: SK-MEL-2
SF-539 = test system: SF-539
Malme-3M = test system: Malme-3M
KM12 = test system: KM12
NCI-H226 = test system: NCI-H226
HL-60 = test system: HL-60
HOP-62 = test system: HOP-62
UO-31 = test system: UO-31
IGROV-1 = test system: IGROV-1
SF-268 = test system: SF-268
NCI-H522 = test system: NCI-H522
UACC-62 = test system: UACC-62
HCT-15 = test system: HCT-15
SK-MEL-5 = test system: SK-MEL-5
SNB-19 = test system: SNB-19
CCRF-CEM = test system: CCRF-CEM
OVCAR-3 = test system: OVCAR-3
SN12C = test system: SN12C
TK-10 = test system: TK-10
UACC-257 = test system: UACC-257
DU-145 = test system: DU-145
CAKI-1 = test system: CAKI-1
Hs-578T = test system: Hs-578T
HT-29 = test system: HT-29
A498 = test system: A498
MDA-MB-435 = test system: MDA-MB-435
K562 = test system: K562
PC-3 = test system: PC-3
MCF7 = test system: MCF7
MDA-MB-231 = test system: MDA-MB-231
NCI/ADR-RES = test system: NCI/ADR-RES
NCI-H23 = test system: NCI-H23
SF-295 = test system: SF-295

CCCCCCCCCCCCCCCCCCOC[C@H](COP(=O)(O)O[C@H]1[C@H](O)[C@@H](O)[C@H](O)C[C@H]1O)OC
GI50 (SR): 12.1 µM (inactive)
GI50 (SNB-75): 13 µM (inactive)
GI50 (RPMI-8226): 11.8 µM (inactive)

N=C(N)SCCc1ccccn1
GI50 (OVCAR-4): > 100 µM (inactive)
GI50 (ACHN): > 100 µM (inactive)
GI50 (U-251): > 100 µM (inactive)
GI50 (NCI-H460): > 100 µM (inactive)
GI50 (SK-OV-3): > 100 µM (inactive)
GI50 (HCT-116): > 100 µM (inactive)
GI50 (COLO 205): > 100 µM (inactive)
GI50 (MOLT-4): > 100 µM (inactive)
GI50 (LOX IMVI): > 100 µM (inactive)
GI50 (A549): > 100 µM (inactive)
GI50 (EKVX): > 100 µM (inactive)
GI50 (RPMI-8226): > 100 µM (inactive)
GI50 (OVCAR-5): > 100 µM (inactive)
GI50 (T47D): > 100 µM (inactive)
GI50 (SW-620): > 100 µM (inactive)
GI50 (OVCAR-8): > 100 µM (inactive)
GI50 (RXF 393): > 100 µM (inactive)
GI50 (HOP-92): > 100 µM (inactive)
GI50 (SK-MEL-28): > 100 µM (inactive)
GI50 (786-0): > 100 µM (inactive)
GI50 (M14): > 100 µM (inactive)
GI50 (SK-MEL-2): > 100 µM (inactive)
GI50 (SF-539): > 100 µM (inactive)
GI50 (Malme-3M): > 100 µM (inactive)
GI50 (KM12): > 100 µM (inactive)
GI50 (NCI-H226): > 100 µM (inactive)
GI50 (HL-60): > 100 µM (inactive)
GI50 (HOP-62): > 100 µM (inactive)
GI50 (UO-31): > 100 µM (inactive)
GI50 (IGROV-1): > 100 µM (inactive)
GI50 (SF-268): > 100 µM (inactive)
GI50 (NCI-H522): > 100 µM (inactive)
GI50 (UACC-62): > 100 µM (inactive)
GI50 (HCT-15): > 100 µM
GI50 (SK-MEL-5): > 100 µM (inactive)
GI50 (SNB-19): > 100 µM (inactive)
GI50 (CCRF-CEM): > 100 µM (inactive)
GI50 (OVCAR-3): > 100 µM (inactive)
GI50 (SN12C): > 100 µM (inactive)

O=c1[nH]nc(N/N=C\c2ccc(Cl)cc2)c2ccccc12
GI50 (OVCAR-4): 52.7 µM (inactive)
GI50 (ACHN): 21.4 µM (inactive)
GI50 (U-251): 20.5 µM (inactive)
GI50 (TK-10): 32.5 µM (inactive)
GI50 (NCI-H460): 20.3 µM (inactive)
GI50 (SK-OV-3): 18.5 µM (inactive)
GI50 (HCT-116): 28.2 µM (inactive)
GI50 (UACC-257): 21.4 µM (inactive)
GI50 (SR): 3.9 µM (inactive)
GI50 (COLO 205): 19.5 µM (inactive)
GI50 (MOLT-4): 60.3 µM (inactive)
GI50 (SNB-75): 22.6 µM (inactive)
GI50 (A549): 20.1 µM (inactive)
GI50 (DU-145): 21.9 µM (inactive)
GI50 (CAKI-1): 18.3 µM (inactive)
GI50 (EKVX): 31.3 µM (inactive)
GI50 (RPMI-8226): 25.7 µM (inactive)
GI50 (OVCAR-5): 16.9 µM (inactive)
GI50 (Hs-578T): 37 µM (inactive)
GI50 (T47D): 25.7 µM (inactive)
GI50 (SW-620): 17.5 µM (inactive)
GI50 (OVCAR-8): 24.3 µM (inactive)
GI50 (RXF 393): 25.4 µM (inactive)
GI50 (HOP-92): 16.9 µM (inactive)
GI50 (SK-MEL-28): 23.3 µM (inactive)
GI50 (786-0): 14.8 µM (inactive)
GI50 (HT-29): 29.5 µM (inactive)
GI50 (A498): 30.3 µM (inactive)
GI50 (M14): 18.7 µM (inactive)
GI50 (SK-MEL-2): 17.2 µM (inactive)
GI50 (SF-539): 21.4 µM (inactive)
GI50 (MDA-MB-435): 17.8 µM (inactive)
GI50 (Malme-3M): 22 µM (inactive)
GI50 (KM12): 21 µM (inactive)
GI50 (K562): 20.9 µM (inactive)
GI50 (NCI-H226): 27.6 µM (inactive)
GI50 (HL-60): > 100 µM (inactive)
GI50 (UO-31): 18.6 µM (inactive)
GI50 (IGROV-1): 15.4 µM (inactive)
GI50 (SF-268): 23.2 µM (inactive)
GI50 (NCI-H522): 16.6 µM (inactive)
GI50 (UACC-62): 20.5 µM (inactive)
GI50 (HCT-15): 17.9 µM
GI50 (PC-3): 17.2 µM (inactive)
GI50 (SK-MEL-5): 16.1 µM (inactive)
GI50 (MCF7): 22.4 µM (inactive)
GI50 (MDA-MB-231): 22.3 µM (inactive)
GI50 (NCI/ADR-RES): 19.6 µM (inactive)
GI50 (SNB-19): 20.4 µM (inactive)
GI50 (NCI-H23): 23 µM (inactive)
GI50 (CCRF-CEM): 44 µM (inactive)
GI50 (OVCAR-3): 16 µM (inactive)
GI50 (SN12C): 27.5 µM (inactive)
GI50 (SF-295): 18.5 µM (inactive)
